Where only a bound is given, the exact number is not on record here.

The target in the experiment is T1, recombinant human SAE enzyme (Homo sapiens, UniProt Q9UBT2).
T1 sequence (Q9UBT2 1-640): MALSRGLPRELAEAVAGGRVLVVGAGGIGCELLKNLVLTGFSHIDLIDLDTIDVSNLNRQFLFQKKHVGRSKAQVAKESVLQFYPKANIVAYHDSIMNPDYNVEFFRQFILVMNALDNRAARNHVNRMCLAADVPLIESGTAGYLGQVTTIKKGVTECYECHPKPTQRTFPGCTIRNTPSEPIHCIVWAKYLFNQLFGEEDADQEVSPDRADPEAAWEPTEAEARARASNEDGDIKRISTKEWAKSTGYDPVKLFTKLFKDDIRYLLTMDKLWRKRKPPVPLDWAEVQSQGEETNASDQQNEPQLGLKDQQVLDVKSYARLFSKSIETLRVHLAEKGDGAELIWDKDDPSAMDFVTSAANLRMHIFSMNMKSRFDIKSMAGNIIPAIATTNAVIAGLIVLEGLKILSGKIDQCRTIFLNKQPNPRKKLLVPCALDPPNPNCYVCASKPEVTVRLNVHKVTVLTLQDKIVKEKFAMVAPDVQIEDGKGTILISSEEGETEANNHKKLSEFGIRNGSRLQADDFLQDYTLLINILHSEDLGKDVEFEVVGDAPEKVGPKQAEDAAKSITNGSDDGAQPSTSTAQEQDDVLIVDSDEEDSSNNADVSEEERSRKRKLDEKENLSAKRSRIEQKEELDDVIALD
T1 sequence (Q9UBE0 1-346 partner): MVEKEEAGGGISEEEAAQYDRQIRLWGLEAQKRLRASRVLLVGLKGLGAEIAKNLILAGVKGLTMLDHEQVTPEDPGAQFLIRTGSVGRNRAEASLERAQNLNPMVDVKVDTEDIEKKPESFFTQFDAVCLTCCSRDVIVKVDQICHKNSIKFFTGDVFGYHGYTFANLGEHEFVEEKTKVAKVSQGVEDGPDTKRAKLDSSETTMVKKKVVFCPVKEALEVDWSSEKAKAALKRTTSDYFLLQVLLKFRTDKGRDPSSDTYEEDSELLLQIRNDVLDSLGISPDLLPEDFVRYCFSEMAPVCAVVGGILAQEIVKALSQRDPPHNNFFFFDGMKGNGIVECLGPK
In words: SAE HTRF Enzyme Assay. Particulars: for IC50: class symbols A-C; for inhibition at 0.111 µM / Percent Inhibition: compound concentration 0.111 μM; for inhibition at 0.111 µM: read-out: Percent Inhibition; for Percent Inhibition: 0.111 µM. It counts as biochemical. The procedure, abridged: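 Sumoylation of Ubc9-GST by recombinant human SAE was followed by time-resolved FRET between Eu-cryptate anti-Flag and allophycocyanin anti-GST antibodies. The enzyme step used low ATP (0.5 μM) at pH 7.5 and ran 105 min at 24° C.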
For orientation: TR-FRET usually uses a lanthanide donor and a delayed reading to cut background.

One may read the IC50 as the concentration that inhibits the measured activity by half. One may read the inhibition as the share of the control response that was lost under treatment. Turning to `NS(=O)(=O)OC[C@H]1C[C@@H](Nc2ncncc2C(=O)c2ccn(Cc3ccc(C(F)(F)F)o3)c2)[C@@H](F)[C@@H]1O` [Compound I-209, [(1R,2R,3R,4R)-3-fluoro-2-hydroxy-4-({5-[(1-{[5-(trifluoromethyl)-2-furyl]methyl}-1H-pyrrol-3-yl)carbonyl]pyrimidin-4-yl}amino)cyclopentyl]methyl sulfamate], the IC50 is under 0.01 µM and the inhibition at 0.111 µM stood at 99%.

As to `NS(=O)(=O)OC[C@H]1C[C@@H](Nc2ncncc2C(=O)c2ccn(Cc3cccc(C(F)(F)F)c3)n2)[C@@H](F)[C@@H]1O` [Compound I-102, [(1R,2R,3R,4R)-3-fluoro-2-hydroxy-4-{[5-({1-[3-(trifluoromethyl)benzyl]-1H-pyrazol-3-yl}carbonyl)pyrimidin-4-yl]amino}cyclopentyl]methyl sulfamate], the IC50 is under 0.01 µM and the inhibition at 0.111 µM came to 97%.

`NS(=O)(=O)OC[C@H]1C[C@@H](Nc2ncncc2C(=O)c2ccn(CC(=O)c3cccc(Cl)c3)n2)[C@H](O)[C@@H]1O` [Compound I-283, [(1R,2R,3S,4R)-4-{[5-({1-[2-(3-chlorophenyl)-2-oxoethyl]-1H-pyrazol-3-yl}carbonyl)pyrimidin-4-yl]amino}-2,3-dihydroxyoyclopentyl]methyl sulfamate]: the IC50 is under 0.01 µM and the inhibition at 0.111 µM was 97%.

As for `NS(=O)(=O)OC[C@H]1C[C@@H](Nc2ncncc2C(=O)c2ccn(Cc3cc(Cl)ccn3)n2)[C@H](O)[C@@H]1O` [Compound I-70, [(1R,2R,3S,4R)-4-{[5-({1-[(4-chloropyridin-2-yl)methyl]-1H-pyrazol-3-yl}carbonyl)pyrimidin-4-yI]amino}-2,3-dihydroxycyclopentyl]methyl sulfamate], the IC50 was under 0.01 µM and the inhibition at 0.111 µM was 99%.

Turning to `NS(=O)(=O)OC[C@H]1C[C@@H](Nc2ncncc2C(=O)c2ccn(CC3CC3)n2)[C@H](O)[C@@H]1O` [Compound I-30, {(1R,2R,3S,4R)-4-[(5-{[1-(cyclopropylmethyl)-1H-pyrazol-3-yl]carbonyl}pyrimidin-4-yl)amino]-2,3-dihydroxycyclopentyl}methyl sulfamate], the IC50 was in the range of 0.01 to 0.1 µM and the inhibition at 0.111 µM was found to be 66%.

Consider `NS(=O)(=O)OC[C@H]1C[C@@H](Nc2ncncc2C(=O)c2ccn(Cc3ccc4ccccc4c3)n2)C[C@@H]1O` [Compound I-48, {(1R,2S,4R)-2-hydroxy-4-[(5-{[1-(2-naphthylmethyl)-1H-pyrazol-3-yl]carbonyl}pyrimidin-4-yl)amino]cyclopentyl}methyl sulfamate], for which the concentration for half-maximal inhibition (IC50) was under 0.01 µM and the inhibition at 0.111 µM amounted to 96%.

For the compound `NS(=O)(=O)OC[C@H]1C[C@@H](Nc2ncncc2C(=O)c2ccn(Cc3cc(Br)ccc3F)n2)C[C@@H]1O` [Compound I-346, {(1R,2S,4R)-4-[(5-{[1-(5-bromo-2-fluorobenzyl)-1H-pyrazol-3-yl]carbonyl}pyrimidin-4-yl)amino]-2-hydroxycyclopentyl}methyl sulfamate], the IC50 is under 0.01 µM and the inhibition at 0.111 µM came to 100%.

For the compound `NS(=O)(=O)OC[C@H]1C[C@@H](Nc2ncncc2C(=O)c2ccn(CC#CC3(O)COC3)n2)C[C@@H]1O` [Compound I-275, [(1R,2S,4R)-2-hydroxy-4-{[5-({1-[3-(3-hydroxyoxetan-3-yl)prop-2-yn-1-yl]-1H-pyrazol-3-yl}carbonyl)pyrimidin-4-yl]amino}cyclopentyl]methyl sulfamate], the IC50 lay in the range of 0.1 to 1 µM and the inhibition at 0.111 µM worked out at 18%.

As to `CCc1cc(C(=O)c2cncnc2N[C@@H]2C[C@H](COS(N)(=O)=O)[C@@H](O)[C@@H]2F)cn1Cc1cccc(Br)c1` [Compound I-187, {(1R,2R,3R,4R)-4-[(5-{[1-(3-Bromobenzyl)-5-ethyl-1H-pyrrol-3-yl]carbonyl}pyrimidin-4-yl)amino]-3-fluoro-2-hydroxycyclopentyl}methyl sulfamate], the IC50 was under 0.01 µM and the inhibition at 0.111 µM worked out at 99%.

As for `CC(c1cccc(Br)n1)n1ccc(C(=O)c2cncnc2N[C@@H]2C[C@H](COS(N)(=O)=O)[C@@H](O)C2)n1` (single isomer, unassigned) [Compound I-65, [(1R,2S,4R)-4-{[5-({1-[(1S)-1-(6-bromopyridin-2-yl)ethyl]-1H-pyrazol-3-yl}carbonyl)pyrimidin-4-yl]amino}-2-hydroxycyclopentyl]methyl sulfamate or [(1R,2S,4R)-4-{[5-({1-[(1R)-1-(6-bromopyridin-2-yl)ethyl]-1H-pyrazol-3-yl}carbonyl)pyrimidin-4-yl]amino}-2-hydroxycyclopentyl]methyl sulfamate], the 50% inhibitory concentration (IC50) was under 0.01 µM and the “Percent Inhibition” value was found to be 99%.

With `CC(c1cccc(Br)c1)n1ccc(C(=O)c2cncnc2N[C@@H]2C[C@H](COS(N)(=O)=O)[C@@H](O)C2)n1` (single isomer, unassigned) [Compound I-358, [(1R,2S,4R)-4-{[5-({1-[(1S)-1-(3-bromophenyl)ethyl]-1H-pyrazol-3-yl}carbonyl)pyrimidin-4-yl]amino}-2-hydroxycyclopentyl]methyl sulfamate or [(1R,2S,4R)-4-{[5-({1-[(1R)-1-(3-bromophenyl)ethyl]-1H-pyrazol-3-yl}carbonyl)pyrimidin-4-yl]amino}-2-hydroxycyclopentyl]methyl sulfamate], the half-maximal inhibitory concentration (IC50) is under 0.01 µM and the “Percent Inhibition” value is recorded as 95%.

For the compound `NS(=O)(=O)OC[C@H]1C[C@@H](Nc2ncncc2C(=O)c2ccn(Cc3ccccc3)n2)[C@H](F)[C@@H]1O` [Compound I-227, [(1R,2R,3S,4R)-4-({5-[(1-benzyl-1H-pyrazol-3-yl)carbonyl]pyrimidin-4-yl}amino)-3-fluoro-2-hydroxycyclopentyl]methyl sulfamate], the IC50 is under 0.01 µM and the inhibition at 0.111 µM amounted to 97%.

In the case of `NS(=O)(=O)OC[C@H]1C[C@@H](Nc2ncncc2C(=O)c2ccn(Cc3cccc(OC(F)(F)F)c3)n2)C[C@@H]1O` [Compound I-20, [(1R,2S,4R)-2-hydroxy-4-{[5-({1-[3-(trifluoromethoxy)benzyl]-1H-pyrazol-3-yl}carbonyl)pyrimidin-4-yl]amino}cyclopentyl]methyl sulfamate], the IC50 is under 0.01 µM and the inhibition at 0.111 µM is 96%.

For the compound `CC1CC1Cn1ccc(C(=O)c2cncnc2N[C@@H]2C[C@H](COS(N)(=O)=O)[C@@H](O)C2)n1` (stereo partly drawn) [Compound I-55, [(1R,2S,4R)-hydroxy-4-{[5-({1-[((1S,2S)-2-methylcyclopropyl)methyl]-1H-pyrazol-3-yl}carbonyl)pyrimidin-4-yl]amino}cyclopentyl]methyl sulfamate and [(1R,2S,4R)-2-hydroxy-4-{[5-({1-[((1R,2R)-2-methylcyclopropyl)methyl]-1H-pyrazol-3-yl}carbonyl)pyrimidin-4-yl]amino}cyclopentyl]methyl sulfamate], the IC50 fell in the range of 0.01 to 0.1 µM and the inhibition at 0.111 µM is 58%.

Consider `CC(c1ccc(Cl)o1)n1ccc(C(=O)c2cncnc2N[C@@H]2C[C@H](COS(N)(=O)=O)[C@@H](O)C2)n1` (single isomer, unassigned) [Compound I-354, [(1R,2S,4R)-4-{[5-({1-[(1 S)-1-(5-chloro-2-furyl)ethyl]-1H-pyrazol-3-yl}carbonyl)pyrimidin-4-yl]amino}-2-hydroxycyclopentyl]methyl sulfamate or [(1R,2S,4R)-4-{[5-({1-[(1R)-1-(5-chloro-2-furyl)ethyl]-1H-pyrazol-3-yl}carbonyl)pyrimidin-4-yl]amino}-2-hydroxycyclopentyl]methyl sulfamate], for which the IC50 lay in the range of 0.01 to 0.1 µM and the inhibition at 0.111 µM was determined as 79%.

As for `Cn1cccc(Cn2ccc(C(=O)c3cncnc3N[C@@H]3C[C@H](COS(N)(=O)=O)[C@@H](O)C3)n2)c1=O` [Compound I-80, [(1R,2S,4R)-2-hydroxy-4-{[5-({1-[(1-methyl-2-oxo-1,2-dihydropyridin-3-yl)methyl]-1H-pyrazol-3-yl}carbonyl)pyrimidin-4-yl]amino}cyclopentyl]methyl sulfamate], the IC50 was under 0.01 µM and the inhibition at 0.111 µM is 96%.

As for `Cn1cc(C#CCn2ccc(C(=O)c3cncnc3N[C@@H]3C[C@H](COS(N)(=O)=O)[C@@H](O)C3)n2)cn1` [Compound I-308, [(1R,2S,4R)-2-hydroxy-4-{[5-({1-[3-(1-methyl-1H-pyrazol-4-yl)prop-2-yn-1-yl]-1H-pyrazol-3-yl}carbonyl)pyrimidin-4-yl]amino}cyclopentyl]methyl sulfamate], the IC50 is 0.1 to 1 µM and the inhibition at 0.111 µM was 27%.

Values taken from patent US9695154B2, “Heteroaryl inhibitors of sumo activating enzyme” (MILLENNIUM PHARMACEUTICALS, INC., priority 2013, dated 2017).
